# “Also recorded” adds a separate entry of the source.
# Assays:
# [1] = system: tyrosine aminotransferase (TAT) induction in rat hepatocytes; assay: TAT induction in rat hepatocytes (agonism); assay type: cell-based; conditions: FIGS. 3-B and 4 (hatched bars), no agonist added
# Method: (§1) FIG. 3: Biological Properties of 21OH-6OP: A) Glycogen storage in vivo: 100 μg steroid/100 g body weight of male rats were injected as indicated in Example 1. Liver glycogen was purified and quantified with Krisman's reagent (17). Controls were injected with vehicle. Results are expressed as means±SEM (n=6). (*): different from controls P<0.02. B) TAT induction in vitro: rat hepatocytes were incubated for 5 h in HAM-F12 medium in the presence of 100 nM steroid and TAT activity was measured. Results are expressed as percentage of enzyme activity (means±SEM, n=4) over controls incubated in the presence of vehicle. (*) different from controls P<0.01. C) Sodium-retaining activity: adrenalectomized rats were treated with the indicated dose of steroids. Results are expressed as the ratio of sodium-excretion rates of steroid-injected animals to the excretion rates of rats injected with vehicle.
# (§2) Hatched bars represent incubations performed in the presence of vehicle instead of agonist.
# (§3) Bioassay : Liver glycogen deposition was measured on adrenalectoniized male Sprague-Dawley rats (180-220 g) as follows: steroids were dissolved in ethanol/propylene glycol/0.9% NaCl solution (3:3:34) and 100 μg steroid/l00 g body weight were injected i.m. the previous night. On the morning of the experiment this dose was reinjected intraperitoneally. Three hours later the rats were killed by cervical dislocation and livers were immediately removed. Glycogen purification and quantification were carried out according to Krisman's method (17). Na^+ -retaining properties were measured as described (5). Tyrosine aminotransferase (TAT) was induced in rat hepatocytes isolated by the procedure of Fry et al (18). TAT activity was determined according to Granner and Tomkins (19).
# (§4) The basal TAT activity in hepatocytes, denominated control in the figure, was measured by adding vehicle (final concentration: 0.2% ethanol) to the culture. […] 2.5 μM 21OH-6OP inhibits 80% of TAT induction when concubated with B or DXM.
# [2] = system: TAT induction in hepatocytes (GR); assay: antagonism of TAT induction by DXM or B in hepatocytes; assay type: cell-based, rat
# Method: as §2, §3, §4
# [3] = molecular target: T1, GR from rat thymus (thymus cytosol) (Rattus norvegicus, UniProt P06536); assay: displacement of (^3 H)-B binding to GR, rat thymus cytosol
# T1 construct: Thymuses were used as a source of GR; from tissue; host or cells: thymus cytosol, adrenalectomized male Sprague-Dawley rats
# T1 sequence (P06536 1-795): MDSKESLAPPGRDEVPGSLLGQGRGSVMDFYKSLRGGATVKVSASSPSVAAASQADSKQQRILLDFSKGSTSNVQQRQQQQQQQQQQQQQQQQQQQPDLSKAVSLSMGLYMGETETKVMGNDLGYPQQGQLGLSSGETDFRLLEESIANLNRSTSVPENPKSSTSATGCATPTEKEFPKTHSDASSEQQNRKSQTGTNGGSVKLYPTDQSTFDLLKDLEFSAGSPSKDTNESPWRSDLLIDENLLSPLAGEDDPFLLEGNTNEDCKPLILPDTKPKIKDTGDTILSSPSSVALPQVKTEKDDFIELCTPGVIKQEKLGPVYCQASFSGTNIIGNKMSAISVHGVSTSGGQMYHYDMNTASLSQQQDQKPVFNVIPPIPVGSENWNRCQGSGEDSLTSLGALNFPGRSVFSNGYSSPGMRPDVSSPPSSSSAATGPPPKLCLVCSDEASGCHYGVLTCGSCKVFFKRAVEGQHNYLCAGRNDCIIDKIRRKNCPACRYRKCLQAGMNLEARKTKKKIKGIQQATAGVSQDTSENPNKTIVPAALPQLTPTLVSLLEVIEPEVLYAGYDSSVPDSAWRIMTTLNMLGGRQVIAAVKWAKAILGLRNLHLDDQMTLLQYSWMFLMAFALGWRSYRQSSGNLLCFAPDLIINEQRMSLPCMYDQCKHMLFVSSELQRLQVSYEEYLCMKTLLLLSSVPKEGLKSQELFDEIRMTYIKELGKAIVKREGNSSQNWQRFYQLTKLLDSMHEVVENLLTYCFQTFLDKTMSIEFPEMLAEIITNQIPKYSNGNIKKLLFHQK
# Method: Binding Assay: Adrenalectomized male Sprague-Dawley rats were bled to death by heart puncture. Cold 0.9% NaCI was injected profusely through the aorta until organs were completely blanched. Thymuses were used as a source of GR and kidneys as a source of MR. Homogenization and incubation conditions were performed as previously described, (14) and (15), respectively. Briefly, homogenates performed in cold TEGM buffer at pH 7.4 (0.1 M Tris-HCl, 10 mM EDTA, 10 mM α-mercaptoethanol, 20 mM Na2 MoO4, 25% glycerol, 0.1 mM PMSF, 2.0 TIU/ml aprotinin and 1 mg% Leupeptin) were centrifuged at 37,000 rev. for 30 min at 0° C. Supernatants from this centrifugation are referred to as "cytosol". […] (^3 H)-P4 binding to uterus PR was assayed on immature female rats according to Jordan et al (16).
# (§5) The displacement curve of 6,19-oxidoprogesterone is included for comparative purposes.
# [4] = system: Na^+ retention (sodium-excretion rate); assay: Na^+ -retaining activity, adrenalectomized rats; assay type: in vivo, rat
# Method: as §1, §3
# liver glycogen = liver glycogen deposition in vivo, adrenalectomized rats; set-up: species or system rat; conditions: FIG. 3-A; 100 μg steroid/100 g body weight
# Method: as §1, §3
# [5] = molecular target: T2, CBG partially purified from rat plasma (Rattus norvegicus, UniProt P31211); assay: displacement of (^3 H)-B binding to partially purified CBG
# T2 construct: CBG partially purified from rat plasma; from tissue; host or cells: rat plasma, partially purified
# T2 sequence (P31211 23-396): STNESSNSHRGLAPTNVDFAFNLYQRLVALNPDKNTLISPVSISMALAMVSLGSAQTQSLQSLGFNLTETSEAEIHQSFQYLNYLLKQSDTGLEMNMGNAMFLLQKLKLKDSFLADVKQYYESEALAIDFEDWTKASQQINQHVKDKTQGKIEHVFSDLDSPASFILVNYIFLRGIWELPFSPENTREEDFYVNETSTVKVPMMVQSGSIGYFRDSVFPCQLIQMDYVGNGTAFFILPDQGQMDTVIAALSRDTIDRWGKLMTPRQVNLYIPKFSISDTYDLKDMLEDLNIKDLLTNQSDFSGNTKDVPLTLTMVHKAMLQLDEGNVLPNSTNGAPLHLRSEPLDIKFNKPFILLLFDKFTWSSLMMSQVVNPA
# Method: Relative binding affinity (RBA) for partially purified CBG was determined by steroid competition for (^3 H)-B binding as described previously (14).
# as §5
structure (smiles),measurement,setting,value
"C[C@]12CC[C@H]3[C@@H](C[C@H]4OC[C@@]35CCC(=O)C=C45)[C@@H]1CC[C@@H]2C(=O)CO [21OH-6OP, 21-hydroxy-6,19-oxidoprogesterone]",TAT induction (in words),[1],neither 6OP nor 21OH-6OP evoke these responses; also recorded: Neither 6OP nor 21OH-6OP facilitate TAT induction
same,inhibition of TAT induction by B,[2]; 2.5 μM steroid vs 100 nM B,80%
same,inhibition of TAT induction by DXM,[2]; 2.5 μM steroid vs 100 nM DXM,80%
same,antagonism of TAT induction by B (in words),"[2]; 2.5 μM steroid, 100 nM B",shows antagonist effect on TAT induction; also recorded: antagonize TAT induction by corticosterone and decamethasone; also recorded: significantly inhibited
same,antagonism of TAT induction by DXM (in words),"[2]; 2.5 μM steroid, 100 nM DXM",shows antagonist effect on TAT induction; also recorded: antagonize TAT induction by corticosterone and decamethasone; also recorded: significantly inhibited
same,"increase of binding to GR by 21-hydroxyl, relative to 6OP",[3]; 21OH-6OP vs 6OP,over 40 times
same,saturation predicted according to mass action,"[3]; FIG. 2 a, predicted",95%
same,tracer displacement,"[3]; FIG. 2 a, 720 min",75%
same,Kd,"[3]; rat thymus cytosol, 5 nM (^3 H)-B, 12 h at 0° C., read-out: RBA for GR (Kd)",125 nM
same,Na^+ -retaining (MC) properties (in words),[4]; FIG. 3-C,almost devoid of MC properties; also recorded: then loosing activity at still higher doses
same,maximum Na^+ retention,"[4]; maximum of parabolic dose-response, at high doses",40%
same,GC response: liver glycogen,liver glycogen,neither 6OP nor 21OH-6OP evoke these responses
same,"increase of binding to CBG by 21-hydroxyl, relative to 6OP",[5]; 21OH-6OP vs 6OP,hundred times
same,inhibition at 2.5 µM,"[5]; 12 h, 2.5 μM, FIG. 2-B, read-out: block of CBG binding sites",~60%
same,Kd,"[5]; partially purified CBG, (^3 H)-B, 12 h at 0° C., read-out: RBA for CBG (Kd)",1270 nM
